The record followed here is PMC6502800, “Visualizing the cellular route of entry of a cystine-knot peptide with Xfect transfection reagent by electron microscopy” (Scientific Reports, 2019).

Series [1] has as its system HeLa cells. Put plainly: Detergent-based cell permeabilization assay. As for the experimental part: Figure 4 Internalized rEETI-II/Xfect is found in compartments that are resistant to detergent permeabilization. […] Cells were then incubated with PBS, 0.1% Triton X-100, 0.04% Saponin, 0.01% Saponin, or 25 μM Digitonin in PBS for 5 min at room temperature, washed and imaged. […] Mean ± SD. n = 1000 cells. Representative images from at least three independent experiments are shown. Scale bar, 20 μm.
For cell permeabilization experiments, HeLa cells were incubated with 5 μM rEETI-II-A488 with or without Xfect for 60 min, or transferrin (labeled with Alexa 555, 0.2 mg/ml) for 10 min, at 37 °C/5% CO2, washed three times with cold PBS. Cells were then fixed with 4% PFA for 20 min at room temperature, washed three times with PBS, and incubated with either PBS, or detergent containing PBS for 5 min at room temperature. Cells were washed again. […] Fluorescence images were captured on a high throughput ImageXpress Micro XL imaging system (Molecular Devices) and images were analyzed by MetaXpress 4.0. Fluorescence intensity values above a threshold defined using the DMSO-treated samples were measured and used to quantify integrated fluorescence intensity per cell or percentage of dye-positive cells. […] Cells were incubated with Hoechst 333421 (5 µg/ml in PBS) for 10 min and washed three times with PBS then imaged, analyzed as described above. […]

For series [2], the system named is HeLa cells. Kind of series: Uptake of cargo into cells pre-treated with Xfect.
Procedure: Cells were fixed with 4% PFA and processed as described in methods. […] Values were normalized to the 6 h Xfect treated samples. Mean ± SD. n = 1000 cells. Representative images from three independent experiments are shown. Scale bar, 20 µm.
(a–d) HeLa cells were incubated with Xfect for indicated times then washed with PBS for three times and incubated with 30 nM SYTOX Red (a,b, Cy5 channel) or 200 nM YOYO-3 Iodide (c,d, Texas Red channel) for 20 min, and washed with PBS again. Cells were fixed with 4% PFA and processed as described in methods. […] Values were normalized to the 24 h Xfect treated samples. Mean ± SD. n = 1000 cells. Representative images from three independent experiments are shown. Scale bar, 20 µm.
cells.HeLa cells were incubated with Xfect for the indicated times, then washed with PBS
forthree times and incubated with 30 nM SYTOX Red (a, Cy5 channel) or 200 nM YOYO-3
Iodide (b, Texas Red channel) for 20 min, and washed with PBS again. Cells were fixed with
4% PFA and processed as described in methods. Representative images from three
independent experiments are shown. Scale bar, 20 µm. Images are normalized to saturation
atthe 24 h time point in order to show the cellular distribution of early time point samples.

Consider “transferrin-Alexa555: transferrin labeled with Alexa 555, marker of early and recycling endosomes”, for which, in the series on HeLa cells [1], the “internalized transferrin staining after detergent permeabilization” value was “resistant to detergent extraction”. As to `C[n+]1c(C=CC=C2C=CN(CCC[N+](C)(C)CCC[N+](C)(C)CCCN3C=CC(=CC=Cc4oc5ccccc5[n+]4C)c4ccccc43)c3ccccc32)oc2ccccc21` [YOYO-3 Iodide], in the series on HeLa cells [2] (HeLa cells pre-treated with Xfect 3 h, washed, then dye 20 min (SYTOX Red 30 nM; YOYO-3 Iodide 200 nM), fluorescence imaging), the “uptake of cell impermeable dye into cells pre-treated with Xfect” value is “observed to enter into cells”. In addition, the “uptake of dye into cells in the absence of Xfect preincubation” value in the series on HeLa cells [2] (HeLa cells, no Xfect, dye 20 min (SYTOX Red 30 nM; YOYO-3 Iodide 200 nM), negative control) was “little to no uptake”.
